# Test results published in patent publication EP0378255B1, “2-Aminopyrimidinone derivatives” (JANSSEN PHARMACEUTICA N.V., priority 1989, dated 1990).
# Read-outs that look alike come from different tables or passages of the source.
# Legend:
# Format in all cases: in vivo
# Norepinephrine = assay: Combined Apomorphine, Tryptamine and Norepinephrine (ATN) test in rats: norepinephrine part; settings: Rattus norvegicus; read-out: Combined ATN test in rats ED₅₀ values (NOR)
# Description: (§1) Int. Pharmacodyn. Ther., 227, 238-253, 1977. Further the activity of the subject compounds as serotonin antagonists is evidenced by the experimental data obtained in the "Gastric Lesions induced by compound 48/80 in rats" test, described in U.S.-4,335,127. […] All tests were carried out following the procedures described in the cited references and the experimental data are shown in Table 8.
# Apomorphine = assay: Combined Apomorphine, Tryptamine and Norepinephrine (ATN) test in rats: apomorphine part; settings: Rattus norvegicus; read-out: Combined ATN test in rats ED₅₀ values (APO)
# compound 48/80 [1] = assay: Gastric Lesions induced by compound 48/80 in rats (serotonin antagonism); settings: Rattus norvegicus, read-out: Compound 48/80 tests ED₅₀ values Gastric lesions
# Description: as §1
# Tryptamine = assay: Combined Apomorphine, Tryptamine and Norepinephrine (ATN) test in rats: tryptamine part; settings: Rattus norvegicus
# compound 48/80 [2] = assay: Protection of Rats from compound 48/80 induced lethality (antihistaminic activity); settings: Rattus norvegicus, read-out: Compound 48/80 tests ED₅₀ values Lethality
# Description: as §1
# Wistar rats = assay: Sleep-wakefulness patterns in the rat (polygraphic EEG/EOG/EMG recording); settings: for MEAN DURATION OF EPISODES PS / MEAN DURATION OF EPISODES SWS1 / MEAN DURATION OF EPISODES SWS2 / MEAN DURATION OF EPISODES W / NUMBER OF EPISODES PS / NUMBER OF EPISODES SWS1 / NUMBER OF EPISODES SWS2 / NUMBER OF EPISODES W: means ± SEM of 10 rats
# Description: Under pentobarbital anesthesia (50 mg/kg i.p.) 10 adult male Wistar rats weighing 240 to 260 g were chronically implanted for standard polygraphic recording of electroencephalogram (EEG), electro-oculogram (EOG) and electromyogram (EMG). After a 8-10 day recovery period from surgery and habituation to the recording conditions ( 12 h light-dark schedule, light on at 9:00 am.), pharmacological tests were started. The animals received 0.04, 0.16 or 0.63 mg/kg of compound 39 dissolved in 1 mM tartaric acid and injected i.p. at the onset of the light period. A minimum of 3 recovery days was allowed between two treatments. Polygraphic recordings were scored visually and classified as being either wakefulness (W), light slow wave sleep (SWS1), deep slow wave sleep (SWS2) or paradoxical sleep (PS). Sleep-wakefulness parameters were analyzed for each of the two successive 4 h periods following the treatment and compared to baseline (vehicle injection under the same conditions). The amounts of sleep and wakefulness states were expressed as percentage of baseline recordings which represented means of two baseline values per animal. Statistical tests were performed by means of the two-tailed Student t-test.
# [3] = convulsions, read-out: Combined ATN test in rats ED₅₀ values (TRY) convulsions
# [4] = hyperaemia, read-out: Combined ATN test in rats ED₅₀ values (TRY) hyperaemia
# [5] = 0-4h after treatment, 0.04 mg/kg i.p.
# [6] = 0-4h after treatment, 0.16 mg/kg i.p.
# [7] = 0-4h after treatment, 0.63 mg/kg i.p.
# [8] = 4-8h after treatment, 0.04 mg/kg i.p.
# [9] = 4-8h after treatment, 0.16 mg/kg i.p.
# [10] = 4-8h after treatment, 0.63 mg/kg i.p.
structure (smiles),measurement,setting,value
CC1=NN(C)c2nc(C)c(CCN3CCC(c4noc5cc(F)ccc45)CC3)c(=O)n2C1 [Compound 86],ED50,Norepinephrine,0.08 mg/kg
same,ED50,Apomorphine,0.04 mg/kg
same,ED50,compound 48/80 [1],0.02 mg/kg
same,ED50,Tryptamine; [3],0.04 mg/kg
same,ED50,Tryptamine; [4],0.00125 mg/kg
Cc1nc2n(c(=O)c1CCN1CCN(c3noc4ccccc34)CC1)CCN2C [Compound 115],ED50,Norepinephrine,1.25 mg/kg
same,ED50,Apomorphine,0.08 mg/kg
same,ED50,compound 48/80 [1],0.02 mg/kg
same,ED50,compound 48/80 [2],0.04 mg/kg
same,ED50,Tryptamine; [3],0.31 mg/kg
same,ED50,Tryptamine; [4],0.005 mg/kg
CCCNc1nc(C)c(CCN2CCN(c3nsc4ccccc34)CC2)c(=O)n1C [Compound 71],ED50,Norepinephrine,1.25 mg/kg
same,ED50,Apomorphine,0.08 mg/kg
same,ED50,compound 48/80 [1],0.63 mg/kg
same,ED50,compound 48/80 [2],0.16 mg/kg
same,ED50,Tryptamine; [3],0.08 mg/kg
same,ED50,Tryptamine; [4],0.005 mg/kg
Cc1nc2n(C)ccn2c(=O)c1CCN1CCC(c2noc3cc(F)ccc23)CC1 [Compound 77],ED50,Norepinephrine,0.16 mg/kg
same,ED50,Apomorphine,0.04 mg/kg
same,ED50,compound 48/80 [1],0.04 mg/kg
same,ED50,compound 48/80 [2],0.005 mg/kg
same,ED50,Tryptamine; [3],0.04 mg/kg
same,ED50,Tryptamine; [4],≤ 0.00063 mg/kg
CCNc1nc(C)c(CCN2CCN(c3noc4ccccc34)CC2)c(=O)n1C [Compound 69],ED50,Norepinephrine,0.31 mg/kg
same,ED50,Apomorphine,0.08 mg/kg
same,ED50,compound 48/80 [1],0.00125 mg/kg
same,ED50,compound 48/80 [2],0.02 mg/kg
same,ED50,Tryptamine; [3],0.31 mg/kg
same,ED50,Tryptamine; [4],0.00125 mg/kg
Cc1nc2n(C)nc(C)n2c(=O)c1CCN1CCN(c2noc3ccccc23)CC1 [Compound 113],ED50,Norepinephrine,1.25 mg/kg
same,ED50,Apomorphine,0.08 mg/kg
same,ED50,compound 48/80 [1],0.08 mg/kg
same,ED50,Tryptamine; [3],0.31 mg/kg
same,ED50,Tryptamine; [4],0.005 mg/kg
Cc1nc2n(c(=O)c1CCN1CCC(c3noc4cc(F)ccc34)CC1)CCN2C [Compound 80],ED50,Norepinephrine,0.31 mg/kg
same,ED50,Apomorphine,0.08 mg/kg
same,ED50,compound 48/80 [1],0.04 mg/kg
same,ED50,compound 48/80 [2],0.005 mg/kg
same,ED50,Tryptamine; [3],0.08 mg/kg
same,ED50,Tryptamine; [4],0.00125 mg/kg
"CNc1nc(C)c(CCN2CCC(=C(c3ccc(F)cc3)c3ccc(F)cc3)CC2)c(=O)n1C [Compound 39, 5-[2-[4-[bis(4-fluorophenyl)methylene]-1-piperidinyl]ethyl]-3,6-dimethyl-2-(methylamino)-4(3H)-pyrimidinone]",MEAN DURATION OF EPISODES PS,Wistar rats; [5],2.1 ± 0.2 min
same,MEAN DURATION OF EPISODES SWS1,Wistar rats; [5],0.8 ± 0.0 min
same,MEAN DURATION OF EPISODES SWS2,Wistar rats; [5],4.7 ± 0.5 min
same,MEAN DURATION OF EPISODES W,Wistar rats; [5],2.6 ± 0.3 min
same,NUMBER OF EPISODES PS,Wistar rats; [5],4±1
same,NUMBER OF EPISODES SWS1,Wistar rats; [5],33±3
same,NUMBER OF EPISODES SWS2,Wistar rats; [5],32±3
same,NUMBER OF EPISODES W,Wistar rats; [5],26±3
same,MEAN DURATION OF EPISODES PS,Wistar rats; [6],2.0 ± 0.3 min
same,MEAN DURATION OF EPISODES SWS1,Wistar rats; [6],0.9 ± 0.0 min
same,MEAN DURATION OF EPISODES SWS2,Wistar rats; [6],5.8 ± 0.5 min
same,MEAN DURATION OF EPISODES W,Wistar rats; [6],2.9 ± 0.3 min
same,NUMBER OF EPISODES PS,Wistar rats; [6],3±1
same,NUMBER OF EPISODES SWS1,Wistar rats; [6],28±2
same,NUMBER OF EPISODES SWS2,Wistar rats; [6],27±2
same,NUMBER OF EPISODES W,Wistar rats; [6],23±1
same,MEAN DURATION OF EPISODES PS,Wistar rats; [7],2.2 ± 0.4 min
same,MEAN DURATION OF EPISODES SWS1,Wistar rats; [7],0.8 ± 0.0 min
same,MEAN DURATION OF EPISODES SWS2,Wistar rats; [7],5.9 ± 0.4 min
same,MEAN DURATION OF EPISODES W,Wistar rats; [7],2.7 ± 0.2 min
same,NUMBER OF EPISODES PS,Wistar rats; [7],3±1
same,NUMBER OF EPISODES SWS1,Wistar rats; [7],26±2
same,NUMBER OF EPISODES SWS2,Wistar rats; [7],27±2
same,NUMBER OF EPISODES W,Wistar rats; [7],22±1
same,doses giving significant effects,"Wistar rats; 0.04, 0.16 or 0.63 mg/kg i.p., two-tailed Student t-test",Significant effects were observed from the lowest dose upwards
same,dose-related response,Wistar rats; 0.04 to 0.63 mg/kg i.p.,a clear dose-related response was obtained
same,"sleep-wakefulness changes (SWS2, W, SWS1, PS)","Wistar rats; 0.04 to 0.63 mg/kg i.p. at the onset of the light period, 8 h recording period","dose-dependent increase of SWS2 combined with a dose-related deficit in W, SWS1 and PS"
same,SWS2 episodes: duration and number,"Wistar rats; 0.04 to 0.63 mg/kg i.p., summary of Table 7","marked prolongation of SWS2 episodes, whereas the number of episodes was reduced"
same,MEAN DURATION OF EPISODES PS,Wistar rats; [8],1.9 ± 0.1 min
same,MEAN DURATION OF EPISODES SWS1,Wistar rats; [8],0.7 ± 0.0 min
same,MEAN DURATION OF EPISODES SWS2,Wistar rats; [8],3.5 ± 0.2 min
same,MEAN DURATION OF EPISODES W,Wistar rats; [8],2.0 ± 0.2 min
same,NUMBER OF EPISODES PS,Wistar rats; [8],13±1
same,NUMBER OF EPISODES SWS1,Wistar rats; [8],35±3
same,NUMBER OF EPISODES SWS2,Wistar rats; [8],41±3
same,NUMBER OF EPISODES W,Wistar rats; [8],26±2
same,MEAN DURATION OF EPISODES PS,Wistar rats; [9],2.1 ± 0.1 min
same,MEAN DURATION OF EPISODES SWS1,Wistar rats; [9],0.7 ± 0.0 min
same,MEAN DURATION OF EPISODES SWS2,Wistar rats; [9],3.9 ± 0.3 min
same,MEAN DURATION OF EPISODES W,Wistar rats; [9],2.0 ± 0.3 min
same,NUMBER OF EPISODES PS,Wistar rats; [9],12±1
same,NUMBER OF EPISODES SWS1,Wistar rats; [9],35±2
same,NUMBER OF EPISODES SWS2,Wistar rats; [9],39±2
same,NUMBER OF EPISODES W,Wistar rats; [9],23±2
same,MEAN DURATION OF EPISODES PS,Wistar rats; [10],2.1 ± 0.1 min
same,MEAN DURATION OF EPISODES SWS1,Wistar rats; [10],0.7 ± 0.0 min
same,MEAN DURATION OF EPISODES SWS2,Wistar rats; [10],3.7 ± 0.2 min
same,MEAN DURATION OF EPISODES W,Wistar rats; [10],1.9 ± 0.2 min
same,NUMBER OF EPISODES PS,Wistar rats; [10],12±1
same,NUMBER OF EPISODES SWS1,Wistar rats; [10],34±2
same,NUMBER OF EPISODES SWS2,Wistar rats; [10],40±2
same,NUMBER OF EPISODES W,Wistar rats; [10],26±2
same,"effective dose, lower than that of ritanserin by",Wistar rats; comparison with ritanserin,10 fold
same,sleep-wakefulness response,Wistar rats; doses of 0.04 and 0.16 mg/kg i.p.,significant sleep-wakefulness response
Cc1nc2n(C)c(C)cn2c(=O)c1CCN1CCN(c2noc3ccccc23)CC1 [Compound 111],ED50,Norepinephrine,0.31 mg/kg
same,ED50,Apomorphine,0.08 mg/kg
same,ED50,compound 48/80 [1],0.16 mg/kg
same,ED50,Tryptamine; [3],0.31 mg/kg
same,ED50,Tryptamine; [4],0.005 mg/kg
